Experimental data as given in US20090111801A1, “SUBSTITUTED PYRAZINONE DERIVATIVES FOR USE AS A MEDICINE” (Janssen Pharmaceutica N.V., priority 2006, published 2009).

What was measured:
[1] = molecular target: T1, 5HT-Transporter (Homo sapiens, UniProt P31645); experiment: Binding experiment for the 5HT-transporter ([3H]paroxetine, human platelet membranes); details: [3H]paroxetine 0.5 nM; for IC50: read-out: h-5HTT pIC50 (converted)
T1 construct: Human platelet membranes (Oceanix Biosciences Corporation, Hanover, Md., USA) were thawed; tissue Oceanix Biosciences Corporation, Hanover, Md., USA; host or cells: human platelet membranes
Procedure, shortened: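 Competition binding of [3H]paroxetine to human platelet membranes in Tris-HCl 50 mM, 120 mM NaCl, 5 mM KCl, with filtration and scintillation counting.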

[2] = molecular target: T2, hα2C receptor (Homo sapiens, UniProt P18825); experiment: Radioligand binding experiment for α2C-adrenoceptor ([3H]raulwolscine, CHO cell membranes); details: [3H]raulwolscine binding; for IC50: read-out: h-α2C pIC50 (converted)
T2 construct: expressed in transfected cells; host or cells: CHO cells, stably transfected; membrane preparation
T2 sequence (P18825 1-462): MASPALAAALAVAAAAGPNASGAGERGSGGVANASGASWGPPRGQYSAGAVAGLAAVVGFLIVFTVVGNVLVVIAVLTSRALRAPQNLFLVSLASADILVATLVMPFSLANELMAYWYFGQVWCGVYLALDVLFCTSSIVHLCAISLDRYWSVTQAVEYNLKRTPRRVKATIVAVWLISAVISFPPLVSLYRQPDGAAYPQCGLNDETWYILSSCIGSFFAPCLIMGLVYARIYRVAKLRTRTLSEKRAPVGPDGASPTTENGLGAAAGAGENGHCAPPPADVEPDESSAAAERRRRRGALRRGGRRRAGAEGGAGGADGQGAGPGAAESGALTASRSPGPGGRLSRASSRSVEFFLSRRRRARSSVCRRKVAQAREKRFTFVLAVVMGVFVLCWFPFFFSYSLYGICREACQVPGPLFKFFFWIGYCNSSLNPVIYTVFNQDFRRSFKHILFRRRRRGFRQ

[3] = molecular target: T3, hα2A receptor (Homo sapiens, UniProt P08913); experiment: Radioligand binding experiment for α2A-adrenoceptor ([3H]raulwolscine, CHO cell membranes); details: [3H]raulwolscine binding; for IC50: read-out: h-α2A pIC50 (converted)
T3 construct: expressed in transfected cells; host or cells: CHO cells, stably transfected; membrane preparation
T3 sequence (P08913 1-465): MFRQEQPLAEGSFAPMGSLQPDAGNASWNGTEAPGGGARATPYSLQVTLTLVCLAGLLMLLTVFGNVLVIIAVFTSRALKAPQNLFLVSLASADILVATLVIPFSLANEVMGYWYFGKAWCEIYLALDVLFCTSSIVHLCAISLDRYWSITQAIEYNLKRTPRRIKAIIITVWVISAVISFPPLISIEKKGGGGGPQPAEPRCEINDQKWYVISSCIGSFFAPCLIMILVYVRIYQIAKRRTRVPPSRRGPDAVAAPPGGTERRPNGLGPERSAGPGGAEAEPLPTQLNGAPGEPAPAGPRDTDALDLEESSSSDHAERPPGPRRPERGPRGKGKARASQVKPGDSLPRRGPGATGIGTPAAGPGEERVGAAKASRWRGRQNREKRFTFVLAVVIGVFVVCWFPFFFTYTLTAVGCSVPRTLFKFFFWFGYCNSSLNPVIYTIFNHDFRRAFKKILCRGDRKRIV

T1 sequence (P31645 whole entry): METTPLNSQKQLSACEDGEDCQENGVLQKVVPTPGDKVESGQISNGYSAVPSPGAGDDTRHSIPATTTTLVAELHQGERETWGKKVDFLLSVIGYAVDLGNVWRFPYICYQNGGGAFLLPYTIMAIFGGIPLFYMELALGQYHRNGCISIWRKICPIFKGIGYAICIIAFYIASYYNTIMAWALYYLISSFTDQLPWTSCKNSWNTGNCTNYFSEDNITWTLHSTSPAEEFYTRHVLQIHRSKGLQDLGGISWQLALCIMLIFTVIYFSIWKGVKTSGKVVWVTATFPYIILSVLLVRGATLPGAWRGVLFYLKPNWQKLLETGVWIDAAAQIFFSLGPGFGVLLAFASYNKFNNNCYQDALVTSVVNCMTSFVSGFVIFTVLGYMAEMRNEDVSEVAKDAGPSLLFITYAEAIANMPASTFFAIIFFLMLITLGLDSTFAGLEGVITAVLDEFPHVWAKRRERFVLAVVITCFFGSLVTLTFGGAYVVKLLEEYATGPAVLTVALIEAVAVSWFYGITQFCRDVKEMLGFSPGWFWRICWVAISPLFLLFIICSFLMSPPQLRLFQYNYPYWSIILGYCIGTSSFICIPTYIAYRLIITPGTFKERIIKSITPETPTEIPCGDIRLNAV

Row | Structure (SMILES) | IC50 [1] | IC50 [2] | IC50 [3] | h-5HTT pIC50 [1] | h-α2C pIC50 [2] | h-α2A pIC50 [3]
1 | C/C(=C\c1ccccc1)CN1CCC(Nc2nccn(CCCN(Cc3ccccc3)C(=O)c3ccccc3)c2=O)CC1 [1-87] | 1580 nM | 12.6 nM | 200 nM | – | – | –
2 | CCCNC(=O)NCc1ccc(Cn2ccnc(NC3CCN(C/C(C)=C/c4ccccc4)CC3)c2=O)cc1 [1-115] | 794 nM | 79.4 nM | 251 nM | – | – | –
3 | C/C(=C\c1ccccc1)CN1CCC(Nc2nccn(CC(=O)N(CCN3CCCC3C)Cc3ccc(F)cc3)c2=O)CC1 (stereo not drawn) [1-138] | 1260 nM | 0.794 nM | 7.94 nM | – | – | –
4 | CSc1ccc(-n2ccnc(NC3CCN(C/C(C)=C/c4ccccc4)CC3)c2=O)cc1 [4-2] | 158 nM | 6.31 nM | 12.6 nM | – | – | –
5 | C/C(=C\c1ccccc1)CN1CCC(Nc2nccn(-c3ccc(Nc4ccc(F)cc4)cc3)c2=O)CC1 [1-44] | 794 nM | 5.01 nM | 100 nM | – | – | –
6 | C/C(=C\c1ccccc1)CN1CCC(Nc2nccn(-c3ccc(C(=O)NC4CCN(Cc5ccccc5)CC4)cc3)c2=O)CC1 [1-129] | 501 nM | 25.1 nM | 63.1 nM | – | – | –
7 | C/C(=C\c1ccccc1)CN1CCC(Nc2nccn(-c3cccc(CNCC4CCCO4)c3)c2=O)CC1 (stereo not drawn) [1-145] | 794 nM | 1.26 nM | 20 nM | – | – | –
8 | COC(=O)c1cccc(Cn2ccnc(NC3CCN(C/C(C)=C/c4ccccc4)CC3)c2=O)c1 [3-13] | 501 nM | 20 nM | 25.1 nM | – | – | –
9 | COC(=O)CN(C)Cc1ccc(-n2ccnc(NC3CCN(C/C(C)=C/c4ccccc4)CC3)c2=O)cc1 [1-99] | 1000 nM | 5.01 nM | 79.4 nM | – | – | –
10 | C/C(=C\c1ccccc1)CN1CCC(Nc2nccn(-c3ccc(CN4CCCCC4)cc3)c2=O)CC1 [2-10] | 251 nM | 1.58 nM | 31.6 nM | – | – | –
11 | C/C(=C\c1ccccc1)CN1CCC(Nc2nccn(CCN3C(=O)c4ccccc4C3=O)c2=O)CC1 [2-49] | 1000 nM | 15.8 nM | 158 nM | – | – | –
12 | CCOC(=O)N1CCN(C(=O)Cn2ccnc(NC3CCN(C/C(C)=C/c4ccccc4)CC3)c2=O)CC1 [2-35] | 2510 nM | 31.6 nM | 158 nM | – | – | –
13 | C/C(=C\c1ccccc1)CN1CCC(Nc2nccn(-c3ccc(NC(=O)Nc4ccc(F)cc4)cc3)c2=O)CC1 [1-120] | 126 nM | 25.1 nM | 200 nM | – | – | –
14 | CC(=O)NCc1ccc(-n2ccnc(NC3CCN(C/C(C)=C/c4ccccc4)CC3)c2=O)cc1 [1-29] | – | – | – | 6.0 | 8.1 | 7.0
15 | C/C(=C\c1ccccc1)CN1CCC(Nc2nccn(-c3ccc(CNC(=O)c4ccno4)cc3)c2=O)CC1 [1-153] | – | – | – | 6.1 | 8.9 | 6.9
16 | C/C(=C\c1ccccc1)CN1CCC(Nc2nccn(-c3ccc(C(=O)N4CCN(Cc5ccccc5)CC4)cc3)c2=O)CC1 [2-32] | 1260 nM | 12.6 nM | 200 nM | – | – | –
17 | CC(=O)N1CCN(C(=O)Cn2ccnc(NC3CCN(C/C(C)=C/c4ccccc4)CC3)c2=O)CC1 [2-22] | > 10000 nM | 25.1 nM | 126 nM | – | – | –
18 | C/C(=C\c1ccccc1)CN1CCC(N(C)c2nccn(CCN3CCCCC3)c2=O)CC1 [15-3] | 5010 nM | 20 nM | 100 nM | – | – | –
19 | C/C(=C\c1ccccc1)CN1CCC(Nc2nccn(Cc3ccc(CNC(=O)NCCS)cc3)c2=O)CC1 [1-116] | 316 nM | 126 nM | 200 nM | – | – | –
20 | C/C(=C\c1ccccc1)CN1CCC(Nc2nccn(CC(=O)NCCCc3ccccc3)c2=O)CC1 [1-60] | 794 nM | 10 nM | 79.4 nM | – | – | –
21 | C/C(=C\c1ccccc1)CN1CCC(Nc2nccn(CC(=O)N(C)CCc3ccccc3)c2=O)CC1 [1-61] | 1260 nM | 6.31 nM | 100 nM | – | – | –
22 | C/C(=C\c1ccccc1)CN1CCC(Nc2nccn(-c3cccc(NC(=O)CC4CCCC4)c3)c2=O)CC1 [1-34] | 631 nM | 20 nM | 63.1 nM | – | – | –
23 | COC(=O)C1CCN(C(=O)Cn2ccnc(NC3CCN(C/C(C)=C/c4ccccc4)CC3)c2=O)CC1 [2-15] | 3980 nM | 3.98 nM | 126 nM | – | – | –
24 | C/C(=C\c1ccccc1)CN1CCC(Nc2nccn(-c3ccc(C(=O)NCc4ccc(F)cc4)cc3)c2=O)CC1 [1-56] | 251 nM | 15.8 nM | 158 nM | – | – | –
25 | C/C(=C\c1ccccc1)CN1CCC(Nc2nccn(Cc3ccc(CNC(=O)c4ccc(C#N)cc4)cc3)c2=O)CC1 [1-75] | 200 nM | 50.1 nM | 126 nM | – | – | –
26 | C/C(=C\c1ccccc1)CN1CCC(Nc2nccn(-c3ccc(CNC(=O)c4ccc(F)cc4)cc3)c2=O)CC1 [1-78] | – | – | – | 7.1 | 8.3 | 6.7
27 | C/C(=C\c1ccccc1)CN1CCC(Nc2nccn(Cc3cccc(CN4CCOCC4)c3)c2=O)CC1 [2-45] | 794 nM | 10 nM | 50.1 nM | – | – | –
28 | COC(=O)Cn1ccnc(NC2CCN(C/C(C)=C/c3ccccc3)CC2)c1=O [3-7] | 7940 nM | 10 nM | 100 nM | – | – | –
29 | C/C(=C\c1ccccc1)CN1CCC(Nc2nccn(CC(=O)NCc3ccccc3)c2=O)CC1 [1-48] | 2000 nM | 5.01 nM | 126 nM | – | – | –
30 | C/C(=C\c1ccccc1)CN1CCC(Nc2nccn(-c3ccc(NC(=O)c4cccc(F)c4)cc3)c2=O)CC1 [1-77] | 251 nM | 15.8 nM | 126 nM | – | – | –

More lines, now with the values ahead:

Row | IC50 [1] | IC50 [2] | IC50 [3] | h-5HTT pIC50 [1] | h-α2C pIC50 [2] | h-α2A pIC50 [3] | Structure (SMILES)
31 | 794 nM | 50.1 nM | 126 nM | – | – | – | C/C(=C\c1ccccc1)CN1CCC(Nc2nccn(Cc3cccc(C(F)(F)F)c3)c2=O)CC1 [5-22]
32 | 398 nM | 20 nM | 100 nM | – | – | – | C/C(=C\c1ccccc1)CN1CCC(Nc2nccn(Cc3ccccc3C#N)c2=O)CC1 [5-19]
33 | 7940 nM | 200 nM | 1000 nM | – | – | – | C/C(=C\c1ccccc1)CN1CCN(c2nccn(CCN3CCOCC3)c2=O)CC1 [9-2]
34 | 1260 nM | 25.1 nM | 126 nM | – | – | – | C/C(=C\c1ccccc1)CN1CCC(Nc2nccn(Cc3ccc(S(C)(=O)=O)cc3)c2=O)CC1 [5-26]
35 | 631 nM | 39.8 nM | 126 nM | – | – | – | C/C(=C\c1ccccc1)CN1CCC(Nc2nccn(Cc3cccc(Cl)c3)c2=O)CC1 [5-18]
36 | 3980 nM | 39.8 nM | 158 nM | – | – | – | C/C(=C\c1ccccc1)CN1CCN(c2ncc[nH]c2=O)CC1 [14-1]
37 | 398 nM | 39.8 nM | 63.1 nM | – | – | – | C/C(=C\c1ccccc1)CN1CCC(Nc2nccn(Cc3ccc4ccccc4c3)c2=O)CC1 [5-35]
38 | 3980 nM | 25.1 nM | 158 nM | – | – | – | C/C(=C\c1ccccc1)CN1CCC(Nc2nccn(Cc3cnc(C)s3)c2=O)CC1 [6-8]
39 | 1580 nM | 50.1 nM | 200 nM | – | – | – | C/C(=C\c1ccccc1)CN1CCC(Nc2nccn(CC3CCCCC3)c2=O)CC1 [7-6]
40 | 251 nM | 20 nM | 63.1 nM | – | – | – | C/C(=C\c1ccccc1)CN1CCC(Nc2nccn(Cc3ccccc3Cl)c2=O)CC1 [5-17]
41 | 7940 nM | 79.4 nM | 316 nM | – | – | – | COCCCn1ccnc(N2CCN(C/C(C)=C/c3ccccc3)CC2)c1=O [10-1]
42 | > 10000 nM | 398 nM | 3980 nM | – | – | – | O=c1c(NC2CCN(C/C=C/c3ccccc3)CC2)nccn1CCN1CCOCC1 [16-7]
43 | 794 nM | 158 nM | 631 nM | – | – | – | O=c1c(NC2CCN(C/C=C/c3ccccc3)CC2)nccn1Cc1ccccc1Br [16-15]
44 | 398 nM | 25.1 nM | 79.4 nM | – | – | – | C/C(=C\c1ccccc1)CN1CCC(Nc2nccn(Cc3ccccc3C)c2=O)CC1 [5-10]
45 | 251 nM | 31.6 nM | 100 nM | – | – | – | CCCCCn1ccnc(NC2CCN(C/C(C)=C/c3ccccc3)CC2)c1=O [7-5]
46 | 2000 nM | 6.31 nM | 39.8 nM | – | – | – | C/C(=C\c1ccccc1)CN1CCC(Nc2nccn(-c3ccc(C=O)cc3)c2=O)CC1 [5-6]
47 | 1260 nM | 39.8 nM | 398 nM | – | – | – | CC(C)(C)OC(=O)NCCCn1ccnc(NC2CCN(C/C=C/c3ccccc3)CC2)c1=O [16-4]
